Assay results published in the supplement of paper PMC13380429.

Tests used:
Settings in all cases: 72 h
[1] = tested on: Caco-2; assay: cell viability relative to DMSO; higher = less toxic
[2] = tested on: Calu-3; assay: as above
[3] = tested on: HepG2; assay: as above
[4] = tested on: U2OS; assay: as above
[5] = tested on: Vero E6; assay: as above
[6] = tested on: Caco-2; assay: relative viability EC50 (midpoint between 100% and the lowest measured viability); higher = less toxic
[7] = tested on: Calu-3; assay: as above
[8] = tested on: HepG2; assay: as above
[9] = tested on: U2OS; assay: as above
[10] = tested on: Vero E6; assay: as above
[11] = tested on: Caco-2; assay: drug sensitivity score (DSS) for viability; higher = more toxic; extreme values may be limits of the assay
[12] = tested on: Calu-3; assay: as above
[13] = tested on: HepG2; assay: as above
[14] = tested on: U2OS; assay: as above
[15] = tested on: Vero E6; assay: as above

O=C(Oc1ccc([N+](=O)[O-])cc1)N1CCN(Cc2cccc(Oc3ccccc3)c2)CC1 [JZL-195]
cell viability ([1]; 1 nM): 107%
cell viability ([1]; 10 nM): 94.7%
cell viability ([1]; 100 nM): 86.7%
cell viability ([1]; 1000 nM): 93.7%
cell viability ([1]; 10000 nM): 95.4%
cell viability ([2]; 1 nM): 102%
cell viability ([2]; 10 nM): 104%
cell viability ([2]; 100 nM): 91.5%
cell viability ([2]; 1000 nM): 103%
cell viability ([2]; 10000 nM): 93.5%
cell viability ([3]; 1 nM): 91.8%
cell viability ([3]; 10 nM): 99.5%
cell viability ([3]; 100 nM): 103%
cell viability ([3]; 1000 nM): 99.2%
cell viability ([3]; 10000 nM): 82.4%
cell viability ([4]; 1 nM): 98.6%
cell viability ([4]; 10 nM): 100%
cell viability ([4]; 100 nM): 97.4%
cell viability ([4]; 1000 nM): 100%
cell viability ([4]; 10000 nM): 94.6%
cell viability ([5]; 1 nM): 97.3%
cell viability ([5]; 10 nM): 103%
cell viability ([5]; 100 nM): 104%
cell viability ([5]; 1000 nM): 92.9%
cell viability ([5]; 10000 nM): 99.7%
relative viability EC50 [6]: > 10 µM
relative viability EC50 [7]: > 10 µM
relative viability EC50 [8]: > 10 µM
relative viability EC50 [9]: > 10 µM
relative viability EC50 [10]: > 10 µM
drug sensitivity score [11]: 0
drug sensitivity score [12]: 0
drug sensitivity score [13]: 0.5
drug sensitivity score [14]: 0
drug sensitivity score [15]: 0

O=C(O)c1ccc(N[C@@H]2O[C@H](CO)[C@@H](O)[C@H](O)[C@@H]2O)cc1 [K-MAP]
cell viability ([1]; 1 nM): 92.7%
cell viability ([1]; 10 nM): 93.3%
cell viability ([1]; 100 nM): 89.5%
cell viability ([1]; 1000 nM): 91%
cell viability ([1]; 10000 nM): 95.8%
cell viability ([2]; 1 nM): 117%
cell viability ([2]; 10 nM): 99.5%
cell viability ([2]; 100 nM): 105%
cell viability ([2]; 1000 nM): 102%
cell viability ([2]; 10000 nM): 99%
cell viability ([3]; 1 nM): 90.8%
cell viability ([3]; 10 nM): 98.1%
cell viability ([3]; 100 nM): 95.4%
cell viability ([3]; 1000 nM): 97.1%
cell viability ([3]; 10000 nM): 97.5%
cell viability ([4]; 1 nM): 99.7%
cell viability ([4]; 10 nM): 95.4%
cell viability ([4]; 100 nM): 100%
cell viability ([4]; 1000 nM): 97.7%
cell viability ([4]; 10000 nM): 100%
cell viability ([5]; 1 nM): 94.7%
cell viability ([5]; 10 nM): 96.7%
cell viability ([5]; 100 nM): 93.2%
cell viability ([5]; 1000 nM): 98.8%
cell viability ([5]; 10000 nM): 109%
relative viability EC50 [6]: > 10 µM
relative viability EC50 [7]: > 10 µM
relative viability EC50 [8]: > 10 µM
relative viability EC50 [9]: > 10 µM
relative viability EC50 [10]: > 10 µM
drug sensitivity score [11]: 0
drug sensitivity score [12]: 0
drug sensitivity score [13]: 0
drug sensitivity score [14]: 0
drug sensitivity score [15]: 0

CN[C@@H](C)C(=O)N[C@H](C(=O)N1CCC[C@H]1c1nc(C(=O)c2ccc(F)cc2)cs1)C1CCCCC1 [LCL-161]
cell viability ([1]; 1 nM): 99.9%
cell viability ([1]; 10 nM): 97.9%
cell viability ([1]; 100 nM): 91.9%
cell viability ([1]; 1000 nM): 103%
cell viability ([1]; 10000 nM): 95.2%
cell viability ([2]; 1 nM): 106%
cell viability ([2]; 10 nM): 102%
cell viability ([2]; 100 nM): 97.6%
cell viability ([2]; 1000 nM): 86.4%
cell viability ([2]; 10000 nM): 77.2%
cell viability ([3]; 1 nM): 93.5%
cell viability ([3]; 10 nM): 104%
cell viability ([3]; 100 nM): 99.8%
cell viability ([3]; 1000 nM): 83.4%
cell viability ([3]; 10000 nM): 89.8%
cell viability ([4]; 1 nM): 104%
cell viability ([4]; 10 nM): 109%
cell viability ([4]; 100 nM): 99.7%
cell viability ([4]; 1000 nM): 97.8%
cell viability ([4]; 10000 nM): 94%
cell viability ([5]; 1 nM): 97.8%
cell viability ([5]; 10 nM): 102%
cell viability ([5]; 100 nM): 97.8%
cell viability ([5]; 1000 nM): 107%
cell viability ([5]; 10000 nM): 104%
relative viability EC50 [6]: > 10 µM
relative viability EC50 [7]: > 10 µM
relative viability EC50 [8]: > 10 µM
relative viability EC50 [9]: > 10 µM
relative viability EC50 [10]: > 10 µM
drug sensitivity score [11]: 0
drug sensitivity score [12]: 2
drug sensitivity score [13]: 1.8
drug sensitivity score [14]: 0
drug sensitivity score [15]: 0

CCCC(CCC)C(=O)NCc1ccc2c(cnn2-c2ccccc2OC)c1 [M-25]
cell viability ([1]; 1 nM): 99.2%
cell viability ([1]; 10 nM): 102%
cell viability ([1]; 100 nM): 97.1%
cell viability ([1]; 1000 nM): 95.3%
cell viability ([1]; 10000 nM): 79.6%
cell viability ([2]; 1 nM): 113%
cell viability ([2]; 10 nM): 95.5%
cell viability ([2]; 100 nM): 115%
cell viability ([2]; 1000 nM): 101%
cell viability ([2]; 10000 nM): 102%
cell viability ([3]; 1 nM): 99.8%
cell viability ([3]; 10 nM): 108%
cell viability ([3]; 100 nM): 101%
cell viability ([3]; 1000 nM): 105%
cell viability ([3]; 10000 nM): 87%
cell viability ([4]; 1 nM): 102%
cell viability ([4]; 10 nM): 100%
cell viability ([4]; 100 nM): 99.5%
cell viability ([4]; 1000 nM): 100%
cell viability ([4]; 10000 nM): 95.1%
cell viability ([5]; 1 nM): 94.5%
cell viability ([5]; 10 nM): 94.2%
cell viability ([5]; 100 nM): 96.6%
cell viability ([5]; 1000 nM): 91.5%
cell viability ([5]; 10000 nM): 88.8%
relative viability EC50 [6]: > 10 µM
relative viability EC50 [7]: > 10 µM
relative viability EC50 [8]: > 10 µM
relative viability EC50 [9]: > 10 µM
relative viability EC50 [10]: > 10 µM
drug sensitivity score [11]: 1.2
drug sensitivity score [12]: 0
drug sensitivity score [13]: 0
drug sensitivity score [14]: 0
drug sensitivity score [15]: 0

CO[C@H]1CC=C2CCN3CCC4=C(CC(=O)OC4)[C@]23C1 [NSC-9965]
cell viability ([1]; 1 nM): 100%
cell viability ([1]; 10 nM): 99.6%
cell viability ([1]; 100 nM): 101%
cell viability ([1]; 1000 nM): 105%
cell viability ([1]; 10000 nM): 108%
cell viability ([2]; 1 nM): 101%
cell viability ([2]; 10 nM): 102%
cell viability ([2]; 100 nM): 94.3%
cell viability ([2]; 1000 nM): 101%
cell viability ([2]; 10000 nM): 111%
cell viability ([3]; 1 nM): 99.9%
cell viability ([3]; 10 nM): 95%
cell viability ([3]; 100 nM): 100%
cell viability ([3]; 1000 nM): 100%
cell viability ([3]; 10000 nM): 104%
cell viability ([4]; 1 nM): 101%
cell viability ([4]; 10 nM): 105%
cell viability ([4]; 100 nM): 98.2%
cell viability ([4]; 1000 nM): 106%
cell viability ([4]; 10000 nM): 108%
cell viability ([5]; 1 nM): 92.5%
cell viability ([5]; 10 nM): 95.8%
cell viability ([5]; 100 nM): 95%
cell viability ([5]; 1000 nM): 91.6%
cell viability ([5]; 10000 nM): 105%
relative viability EC50 [6]: > 10 µM
relative viability EC50 [7]: > 10 µM
relative viability EC50 [8]: > 10 µM
relative viability EC50 [9]: > 10 µM
relative viability EC50 [10]: > 10 µM
drug sensitivity score [11]: 0
drug sensitivity score [12]: 0
drug sensitivity score [13]: 0
drug sensitivity score [14]: 0
drug sensitivity score [15]: 0

O=c1cc(N2CCOCC2)oc2c1ccc1ccccc12 [NU-7026]
cell viability ([1]; 1 nM): 94.3%
cell viability ([1]; 10 nM): 113%
cell viability ([1]; 100 nM): 91%
cell viability ([1]; 1000 nM): 99.2%
cell viability ([1]; 10000 nM): 82.7%
cell viability ([2]; 1 nM): 98.4%
cell viability ([2]; 10 nM): 107%
cell viability ([2]; 100 nM): 102%
cell viability ([2]; 1000 nM): 97.6%
cell viability ([2]; 10000 nM): 82.8%
cell viability ([3]; 1 nM): 106%
cell viability ([3]; 10 nM): 93.4%
cell viability ([3]; 100 nM): 92.9%
cell viability ([3]; 1000 nM): 90.8%
cell viability ([3]; 10000 nM): 88%
cell viability ([4]; 1 nM): 98.9%
cell viability ([4]; 10 nM): 101%
cell viability ([4]; 100 nM): 96.2%
cell viability ([4]; 1000 nM): 99.6%
cell viability ([4]; 10000 nM): 95.7%
cell viability ([5]; 1 nM): 99%
cell viability ([5]; 10 nM): 103%
cell viability ([5]; 100 nM): 98.3%
cell viability ([5]; 1000 nM): 101%
cell viability ([5]; 10000 nM): 86.2%
relative viability EC50 [6]: > 10 µM
relative viability EC50 [7]: > 10 µM
relative viability EC50 [8]: > 10 µM
relative viability EC50 [9]: > 10 µM
relative viability EC50 [10]: > 10 µM
drug sensitivity score [11]: 0.5
drug sensitivity score [12]: 0.7
drug sensitivity score [13]: 0.4
drug sensitivity score [14]: 0
drug sensitivity score [15]: 0.1

O=C(Nc1ccc2[nH]ccc2c1)c1ccccc1 [OAC2]
cell viability ([1]; 1 nM): 91.9%
cell viability ([1]; 10 nM): 91.3%
cell viability ([1]; 100 nM): 95.1%
cell viability ([1]; 1000 nM): 98.7%
cell viability ([1]; 10000 nM): 94.5%
cell viability ([2]; 1 nM): 102%
cell viability ([2]; 10 nM): 99%
cell viability ([2]; 100 nM): 104%
cell viability ([2]; 1000 nM): 99.3%
cell viability ([2]; 10000 nM): 96.6%
cell viability ([3]; 1 nM): 104%
cell viability ([3]; 10 nM): 106%
cell viability ([3]; 100 nM): 97.3%
cell viability ([3]; 1000 nM): 99.7%
cell viability ([3]; 10000 nM): 101%
cell viability ([4]; 1 nM): 103%
cell viability ([4]; 10 nM): 97.2%
cell viability ([4]; 100 nM): 97.1%
cell viability ([4]; 1000 nM): 104%
cell viability ([4]; 10000 nM): 95.3%
cell viability ([5]; 1 nM): 92.3%
cell viability ([5]; 10 nM): 95.7%
cell viability ([5]; 100 nM): 99.6%
cell viability ([5]; 1000 nM): 92.8%
cell viability ([5]; 10000 nM): 95.5%
relative viability EC50 [6]: > 10 µM
relative viability EC50 [7]: > 10 µM
relative viability EC50 [8]: > 10 µM
relative viability EC50 [9]: > 10 µM
relative viability EC50 [10]: > 10 µM
drug sensitivity score [11]: 0
drug sensitivity score [12]: 0
drug sensitivity score [13]: 0
drug sensitivity score [14]: 0
drug sensitivity score [15]: 0
